Tests used:
[1] = molecular target: T1, human TRPV3 (Homo sapiens, UniProt Q8NET8); assay: In vitro antagonism of recombinant human TRPV3 activation (FLIPR Tetra calcium assay, 2-APB as agonist); format: cell-based; conditions: HEK293 cells stably expressing human TRPV3; 2-APB 80 μM; range class; read-out: IC50 (reported range)
T1 construct: expressed in transfected cells
T1 sequence (Q8NET8 1-790): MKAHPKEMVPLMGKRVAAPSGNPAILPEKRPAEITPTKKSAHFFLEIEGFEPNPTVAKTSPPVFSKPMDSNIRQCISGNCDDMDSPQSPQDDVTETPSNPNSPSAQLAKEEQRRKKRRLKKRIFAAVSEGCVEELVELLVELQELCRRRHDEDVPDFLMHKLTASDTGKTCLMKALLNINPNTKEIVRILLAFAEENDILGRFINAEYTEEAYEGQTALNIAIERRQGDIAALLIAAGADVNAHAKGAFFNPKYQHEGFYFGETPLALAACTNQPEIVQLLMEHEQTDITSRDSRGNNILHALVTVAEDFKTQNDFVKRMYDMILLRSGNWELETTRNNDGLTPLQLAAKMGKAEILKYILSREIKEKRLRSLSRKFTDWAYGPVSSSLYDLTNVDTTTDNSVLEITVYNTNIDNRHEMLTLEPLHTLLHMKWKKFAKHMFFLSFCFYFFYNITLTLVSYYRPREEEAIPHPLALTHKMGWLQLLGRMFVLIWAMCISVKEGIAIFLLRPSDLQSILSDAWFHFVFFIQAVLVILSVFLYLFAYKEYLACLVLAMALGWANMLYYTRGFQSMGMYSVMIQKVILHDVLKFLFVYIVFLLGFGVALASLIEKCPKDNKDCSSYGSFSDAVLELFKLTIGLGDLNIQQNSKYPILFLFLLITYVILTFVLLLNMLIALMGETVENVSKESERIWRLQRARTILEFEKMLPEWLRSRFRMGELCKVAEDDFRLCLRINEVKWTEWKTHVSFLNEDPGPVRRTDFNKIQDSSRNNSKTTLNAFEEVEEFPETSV
Summary of the method: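 Readout is FLIPR fluorescence, max minus min as percent of uninhibited 2-APB response, giving IC50 (usually mean of ≥2 runs). Stable human TRPV3 HEK293 cells, Calcium-4 dye-loaded, got test compound then, three minutes later, 80 μM 2-APB (EC80); run length 10 min.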

[2] = In vitro human microsomal stability assay; format: in vitro ADME; conditions: human, 0.5 h, 0.5 μM, pH 7.4
Summary of the method: (§1)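 Rat (Sprague-Dawley) and human liver microsomes were incubated with test compound and NADPH at 37 °C. Time-zero samples also received NADPH.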

[3] = In vitro rat microsomal stability assay; format: in vitro ADME, rat (Sprague-Dawley); conditions: Sprague-Dawley, rat, 0.5 h, 0.5 μM, pH 7.4
Summary of the method: as §1

SMILES | IC50 [1] | HUMAN MICROSOMAL STABILITY (% REMAINING AFTER 30 MINUTES) [2] | RAT MICROSOMAL STABILITY (% REMAINING AFTER 30 MINUTES) [3]
OC(c1ccccn1)C1(c2ccc(OC(F)(F)F)cc2)CCOCC1 (stereo not drawn) [Example 67, pyridin-2-yl{4-[4-(trifluoromethoxy)phenyl]tetrahydro-2H-pyran-4-yl}-methanol] | 1100 to 5000 nM | 58% | 47%
OC(CC1(c2cccc(C(F)(F)F)c2)CCC1)c1ccccn1 (stereo not drawn) [Example 74, 1-(pyridin-2-yl)-2-{1-[3-(trifluoromethyl)phenyl]cyclobutyl}ethanol] | 50 to 500 nM | 6.8% | 0.45%
OC(CC1(c2ccc(C(F)(F)F)cc2)CCC1)c1ccccn1 (stereo not drawn) [Example 75, 1-(pyridin-2-yl)-2-{1-[4-(trifluoromethyl)phenyl]cyclobutyl}ethanol] | 501 to 1000 nM | 44% | 0.74%
OC(CC1(c2ccc(OC(F)(F)F)cc2)CCC1)c1ccccn1 (stereo not drawn) [Example 76, 1-(pyridin-2-yl)-2-{1-[4-(trifluoromethoxy)phenyl]cyclobutyl}ethanol] | 501 to 1000 nM | 39% | 0.47%
OC(CC1(c2cccc(OC(F)(F)F)c2)CCC1)c1ccccn1 (stereo not drawn) [Example 77, 1-(pyridin-2-yl)-2-{1-[3-(trifluoromethoxy)phenyl]cyclobutyl}ethanol] | 501 to 1000 nM | 11% | 0.94%
OC(c1ccccn1)C1(c2ccc(Cl)c(Cl)c2)CC(F)(F)C1 (stereo not drawn) [Example 82, [1-(3,4-dichlorophenyl)-3,3-difluorocyclobutyl](pyridin-2-yl)methanol] | 501 to 1000 nM | 35% | 16%
OC(c1ccccn1)C1(c2ccc(C(F)(F)F)nc2)CCC1 (stereo not drawn) [Example 85, pyridin-2-yl{1-[6-(trifluoromethyl)pyridin-3-yl]cyclobutyl}methanol] | 5100 to 20000 nM | 82% | 76%
OC(c1ccccn1)C1(c2ccc(C(F)(F)F)cc2)CCCO1 (stereo not drawn) [Example 88, (anti)-pyridin-2-yl{2-[4-(trifluoromethyl)phenyl]tetrahydrofuran-2-yl}-methanol] | 50 to 500 nM | 38% | 7.0%
OC(c1ccccn1)C1(c2ccc(C(F)(F)F)cc2)CCCO1 (stereo not drawn) [Example 89, (syn)-pyridin-2-yl{2-[4-(trifluoromethyl)phenyl]tetrahydrofuran-2-yl}-methanol] | 1100 to 5000 nM | 70% | 4.3%
Cc1ccccc1C1(C(O)c2ccccn2)CCCO1 (stereo not drawn) [Example 90, [2-(2-methylphenyl)tetrahydrofuran-2-yl](pyridin-2-yl)methanol] | 50 to 500 nM | 35% | <0.01%
Cc1cccc(C2(C(O)c3ccccn3)CCCO2)c1 (stereo not drawn) [Example 91, [2-(3-methylphenyl)tetrahydrofuran-2-yl](pyridin-2-yl)methanol] | 50 to 500 nM | 46% | 1.0%
OC(c1ccccn1)C1(c2cccc(OC(F)(F)F)c2)CCCO1 (stereo not drawn) [Example 92, (anti)-pyridin-2-yl{2-[3-(trifluoromethoxy)phenyl]tetrahydrofuran-2-yl}-methanol] | 50 to 500 nM | 2.7% | 0.23%
OC(c1ccccn1)C1(c2cccc(OC(F)(F)F)c2)CCCO1 (stereo not drawn) [Example 93, (syn)-pyridin-2-yl{2-[3-(trifluoromethoxy)phenyl]tetrahydrofuran-2-yl}-methanol] | 501 to 1000 nM | 12% | 0.33%
OC(c1ccccn1)C1(c2ccc(OC(F)(F)F)cc2)CCCO1 (stereo not drawn) [Example 94, (anti)-pyridin-2-yl{2-[4-(trifluoromethoxy)phenyl]tetrahydrofuran-2-yl}-methanol] | 50 to 500 nM | 55% | 3.8%
OC(c1ccccn1)C1(c2ccc(OC(F)(F)F)cc2)CCCO1 (stereo not drawn) [Example 95, (syn)-pyridin-2-yl{2-[4-(trifluoromethoxy)phenyl]tetrahydrofuran-2-yl}-methanol] | 1100 to 5000 nM | 57% | 0.61%
OC(c1ccccn1)C1(c2ccccc2OC(F)(F)F)CCCO1 (stereo not drawn) [Example 96, (anti)-pyridin-2-yl{2-[2-(trifluoromethoxy)phenyl]tetrahydrofuran-2-yl}-methanol] | 1100 to 5000 nM | 0.68% | 0.15%
OC(c1ccccn1)C1(c2ccccc2OC(F)(F)F)CCCO1 (stereo not drawn) [Example 97, (syn)-pyridin-2-yl{2-[2-(trifluoromethoxy)phenyl]tetrahydrofuran-2-yl}-methanol] | 50 to 500 nM | 6.4% | 0.16%
OC(c1ccccn1)C1(c2ccc(Cl)c(Cl)c2)CCCO1 (stereo not drawn) [Example 98] | 50 to 500 nM | 7.6% | 0.020%
OC(c1ccccn1)C1(c2ccc(Cl)c(Cl)c2)CCCO1 (stereo not drawn) [Example 99, (syn)-[2-(3,4-dichlorophenyl)tetrahydrofuran-2-yl](pyridin-2-yl)methanol] | 1100 to 5000 nM | 30% | 0.17%
OC(c1ccccn1)C1(c2cccc(F)c2)CCCO1 (stereo not drawn) [Example 100, (anti)-[2-(3-fluorophenyl)tetrahydrofuran-2-yl](pyridin-2-yl)methanol] | 501 to 1000 nM | 26% | 2.9%
OC(c1ccccn1)C1(c2ccccc2F)CCCO1 (stereo not drawn) [Example 103, (syn)-[2-(2-fluorophenyl)tetrahydrofuran-2-yl](pyridin-2-yl)methanol] | 1100 to 5000 nM | 73% | 0.012%
OC(c1ccccn1)C1(c2cccc(Cl)c2)CCCO1 (stereo not drawn) [Example 104, (anti)-[2-(3-chlorophenyl)tetrahydrofuran-2-yl](pyridin-2-yl)methanol] | 50 to 500 nM | 15% | 0.42%
OC(c1ccccn1)C1(c2cccc(Cl)c2)CCCO1 (stereo not drawn) [Example 105, (syn)-[2-(3-chlorophenyl)tetrahydrofuran-2-yl](pyridin-2-yl)methanol] | 5100 to 20000 nM | 42% | 0.040%
OC(c1ccccn1)C1(c2cccc(C(F)(F)F)c2)CCCO1 (stereo not drawn) [Example 106, (anti)-pyridin-2-yl{2-[3-(trifluoromethyl)phenyl]tetrahydrofuran-2-yl}-methanol] | 50 to 500 nM | 3.9% | 1.6%
